This passage reports binding results from publication PMC11324436 (2024).

Common to all, as to test: NMM fluorescence enhancement
Assay [1] deals with 55PYO4A (DNA, aptamer) GATCGGAATGGGAGCGAATGAGGAGGGAGCGCGGACATGGTGCAGCAGCCCGACG
Particulars: 10 mM KCl, 2 mM MgSO4 (added), 0.37 mM CaCl2; SSMB1 pH 5.9, 23 °C; 2 µM aptamer, 2 µM NMM.

Assay [2] relates to 55PYO2A (DNA, aptamer) CTAGGAATCAGGAGCGAATGTTAGAGTATTTGGATAGTATGTTTATTGTATCGGC
Particulars: 10 mM KCl, 2 mM MgSO4 (added), 0.37 mM CaCl2; SSMB1 pH 5.9, 23 °C; 2 µM aptamer, 2 µM NMM; no enhancement over control.

Assay [3] has as its system Oligo 5637 (DNA, single strand) GCCTGTTGTGAGCCTCCTGTCGAAGTATGCGATAGGAGCGAATGATATATATCAAGTTACCACACGGATGTACTTGCTTGAGCGTTTATTCTTGTCTCCC
Conditions: 10 mM KCl, 2 mM MgSO4 (added), 0.37 mM CaCl2; SSMB1 pH 5.9, 23 °C; 2 µM aptamer, 2 µM NMM; no enhancement over control.

Assay [4] relates to 15THR1A (DNA, aptamer) GGTTGGTGTGGTTGG
Conditions: 10 mM KCl, 2 mM MgSO4 (added), 0.37 mM CaCl2; SSMB1 pH 5.9, 23 °C; 2 µM aptamer, 2 µM NMM.

With `CCc1c(C)c2cc3nc(cc4nc(cc5c(CC)c(C)c(cc1[nH]2)n5C)C(C)=C4CCC(=O)O)C(CCC(=O)O)=C3C`, the binding entry in assay [1] is “yes”; in assay [2], “no”; in assay [3] it was “no”; in assay [4], “yes”.
